ChEMBL document CHEMBL1201862, “PubChem BioAssay data set” (2004)
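96-well plates; 48 h exposure; 5 concentrations. Endpoints by linear interpolation between flanking doses. Not reached: highest tested concentration assigned. GI50 is the concentration that inhibits growth by half.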 Calls of active or inactive are those of the source. Rule as the data show it: active = GI50 up to about 1.1 µM and inactive = higher.

What was measured:
Test in all cases: inhibition of tumour cell growth, NCI panel, 48 h
[1] = test system: U-251
[2] = test system: SK-MEL-5
[3] = test system: SNB-75
[4] = test system: NCI-H23
[5] = test system: SK-MEL-2
[6] = test system: SN12C
[7] = test system: SF-539
[8] = test system: LOX IMVI
[9] = test system: T47D
[10] = test system: NCI-H460
[11] = test system: KM12
[12] = test system: NCI/ADR-RES
[13] = test system: HOP-62
[14] = test system: COLO 205
[15] = test system: SNB-19
[16] = test system: SR
[17] = test system: CAKI-1
[18] = test system: IGROV-1
[19] = test system: A498
[20] = test system: MDA-N

| SMILES | GI50 [1] | GI50 [2] | GI50 [3] | GI50 [4] | GI50 [5] | GI50 [6] | GI50 [7] | GI50 [8] | GI50 [9] | GI50 [10] | GI50 [11] | GI50 [12] | GI50 [13] | GI50 [14] | GI50 [15] | GI50 [16] | GI50 [17] | GI50 [18] | GI50 [19] | GI50 [20] |
| --- | --- | --- | --- | --- | --- | --- | --- | --- | --- | --- | --- | --- | --- | --- | --- | --- | --- | --- | --- | --- |
| CCc1nc(N)nc(N)c1-c1ccc(Cl)c([N+]#N)c1 | 64.3 µM (inactive) | 46.2 µM (inactive) | > 100 µM (inactive) | 28.5 µM (inactive) | > 100 µM (inactive) | 50.6 µM (inactive) | 44.3 µM (inactive) | 46.5 µM (inactive) | > 100 µM (inactive) | 37.8 µM (inactive) | 38.1 µM (inactive) | 49.8 µM (inactive) | 82 µM (inactive) | 56 µM (inactive) | > 100 µM (inactive) | 22.9 µM (inactive) | 58.3 µM (inactive) | 6.58 µM (inactive) | – | – |
| N=C(Nc1nc(-c2ccccn2)cc2ccccc12)c1ccccn1 | 0.0295 µM (active) | 0.0817 µM (active) | 0.361 µM (active) | 0.0156 µM (active) | – | 0.0252 µM (active) | 0.097 µM (active) | 0.0266 µM (active) | 0.0244 µM (active) | 0.0857 µM (active) | 0.049 µM (active) | < 0.0185 µM (active) | 0.0789 µM (active) | 0.011 µM (active) | 0.834 µM (active) | – | < 0.0123 µM (active) | 0.0322 µM (active) | 0.233 µM (active) | 0.272 µM (active) |
| COc1cccc(/C=N/n2c(-c3ccccc3)n[nH]c2=O)c1 | 34.5 µM (inactive) | – | 34.3 µM (inactive) | 27.3 µM (inactive) | 34.6 µM (inactive) | 87.7 µM (inactive) | 28.1 µM (inactive) | – | 27.5 µM (inactive) | 42.2 µM (inactive) | 85.5 µM (inactive) | 39.4 µM (inactive) | 25.9 µM (inactive) | > 100 µM (inactive) | 35.7 µM (inactive) | – | 53 µM (inactive) | – | 24.4 µM (inactive) | > 100 µM (inactive) |
| CC1(C)OC2OC(COC(=O)C=[N+]=[N-])C3OC(C)(C)OC3C2O1 (stereo not given) | > 100 µM (inactive) | > 100 µM (inactive) | – | > 100 µM (inactive) | > 100 µM (inactive) | > 100 µM (inactive) | – | > 100 µM (inactive) | – | > 100 µM (inactive) | > 100 µM (inactive) | – | > 100 µM (inactive) | > 100 µM (inactive) | > 100 µM (inactive) | > 100 µM (inactive) | > 100 µM (inactive) | > 100 µM (inactive) | > 100 µM (inactive) | > 100 µM (inactive) |
| COc1cc(/C=C/c2cc(=O)cc(/C=C/c3ccc(O)c(OC)c3)o2)ccc1O | 25.5 µM (inactive) | 13.6 µM (inactive) | 29.9 µM (inactive) | 59.7 µM (inactive) | 41.2 µM (inactive) | > 60.3 µM (inactive) | > 62.5 µM (inactive) | 29.6 µM (inactive) | 15.3 µM (inactive) | 44 µM (inactive) | > 38.3 µM (inactive) | 98.4 µM (inactive) | 22 µM (inactive) | > 100 µM (inactive) | > 92 µM (inactive) | > 23.6 µM (inactive) | 64.3 µM (inactive) | > 100 µM (inactive) | > 100 µM (inactive) | – |
| Cc1cc(-c2ccc(C(=O)C(Cl)(Cl)Cl)[nH]2)on1 | 15.4 µM (inactive) | 32.8 µM (inactive) | 31.3 µM (inactive) | 23.8 µM (inactive) | 23.9 µM (inactive) | 16.4 µM (inactive) | 15.3 µM (inactive) | 24.9 µM (inactive) | 52.2 µM (inactive) | 10.2 µM (inactive) | 12.2 µM (inactive) | 29.3 µM (inactive) | 11.4 µM (inactive) | 86.7 µM (inactive) | 40.8 µM (inactive) | – | 18.1 µM (inactive) | – | 41.3 µM (inactive) | 34.2 µM (inactive) |
| Cc1cc(NS(=O)(=O)c2ccc(/N=[N+](\[O-])c3ccc(S(=O)(=O)Nc4cc(C)on4)cc3)cc2)no1 | > 100 µM (inactive) | > 100 µM (inactive) | > 100 µM (inactive) | > 100 µM (inactive) | > 100 µM (inactive) | > 100 µM (inactive) | > 100 µM (inactive) | > 100 µM (inactive) | > 100 µM (inactive) | – | – | > 100 µM (inactive) | > 100 µM (inactive) | > 100 µM (inactive) | > 100 µM (inactive) | > 100 µM (inactive) | > 100 µM (inactive) | > 100 µM (inactive) | > 100 µM (inactive) | – |
| N#CC(C#N)=C1/C(=C/C=C/C=C/C=C/c2ccc(N3CCCCC3)s2)S(=O)(=O)c2ccccc21 | 46.7 µM (inactive) | > 100 µM (inactive) | > 100 µM (inactive) | > 100 µM (inactive) | > 100 µM (inactive) | > 100 µM (inactive) | > 100 µM (inactive) | > 100 µM (inactive) | 80.9 µM (inactive) | > 100 µM (inactive) | > 100 µM (inactive) | > 100 µM (inactive) | 33.7 µM (inactive) | > 100 µM (inactive) | 45.3 µM (inactive) | 50.5 µM (inactive) | > 100 µM (inactive) | > 100 µM (inactive) | > 100 µM (inactive) | – |
| COc1cc([C@@H]2c3cc4c(cc3[C@@H](c3c(O)cc(O)c5c3O[C@H](c3ccc(O)c(O)c3)[C@H](OC(=O)c3cc(O)c(O)c(O)c3)C5)[C@H]3COC(=O)[C@H]23)OCO4)cc(OC)c1O | 46.5 µM (inactive) | 25.8 µM (inactive) | – | 69.2 µM (inactive) | 57.9 µM (inactive) | 22.3 µM (inactive) | 24.1 µM (inactive) | 29.2 µM (inactive) | > 100 µM (inactive) | 32.5 µM (inactive) | 32 µM (inactive) | 54.8 µM (inactive) | 51.8 µM (inactive) | 28.7 µM (inactive) | 30.1 µM (inactive) | – | 76.6 µM (inactive) | 57.7 µM (inactive) | 74.5 µM (inactive) | 18.4 µM (inactive) |
| COc1ccc(CCNC(=O)CCc2ccccc2CO)cc1OC | > 100 µM (inactive) | > 100 µM (inactive) | > 100 µM (inactive) | > 100 µM (inactive) | > 100 µM (inactive) | > 100 µM (inactive) | > 100 µM (inactive) | – | > 100 µM (inactive) | > 100 µM (inactive) | > 100 µM (inactive) | > 100 µM (inactive) | > 100 µM (inactive) | > 100 µM (inactive) | > 100 µM (inactive) | > 100 µM (inactive) | > 100 µM (inactive) | > 100 µM (inactive) | > 100 µM (inactive) | – |
| NC(=O)c1nc[nH]c1/N=N/SCC(N)C(=O)O (stereo not given) | > 80.7 µM (inactive) | 57 µM (inactive) | 24.3 µM (inactive) | > 78.9 µM (inactive) | 3.33 µM (inactive) | 6.73 µM (inactive) | 17.6 µM (inactive) | 2.61 µM (inactive) | > 60.5 µM (inactive) | 12.7 µM (inactive) | 14.2 µM (inactive) | 6.58 µM (inactive) | 28.7 µM (inactive) | 21.2 µM (inactive) | > 100 µM (inactive) | 0.773 µM (active) | 4.21 µM (inactive) | 12.8 µM (inactive) | > 100 µM (inactive) | – |
| COc1cc(C(=O)Nc2cc(C(N)=O)cc(OC)c2OC)cc(NC(=O)/C=C/c2ccccc2)c1OC | – | – | 1.71 µM (inactive) | > 100 µM (inactive) | – | 18.6 µM (inactive) | > 100 µM (inactive) | – | – | 66.4 µM (inactive) | > 100 µM (inactive) | > 100 µM (inactive) | – | > 100 µM (inactive) | > 100 µM (inactive) | 20.4 µM (inactive) | – | > 100 µM (inactive) | – | > 100 µM (inactive) |
| CC1=[N+]([O-])C(C)(C)N(N=O)C1(C)C | > 10 µM (inactive) | – | – | > 10 µM (inactive) | > 10 µM (inactive) | > 10 µM (inactive) | – | – | > 10 µM (inactive) | > 10 µM (inactive) | > 10 µM (inactive) | > 10 µM (inactive) | > 10 µM (inactive) | > 10 µM (inactive) | > 10 µM (inactive) | – | > 10 µM (inactive) | – | – | > 10 µM (inactive) |
| COC(=O)C(Cc1cn(C(C)n2cc(CC(NC(C)=O)C(=O)OC)c3ccccc32)c2ccccc12)NC(C)=O (stereo not given) | > 100 µM (inactive) | 73.3 µM (inactive) | 0.116 µM (active) | > 100 µM (inactive) | > 100 µM (inactive) | > 100 µM (inactive) | – | – | – | 63.2 µM (inactive) | 32.1 µM (inactive) | – | > 100 µM (inactive) | > 100 µM (inactive) | > 100 µM (inactive) | 37.6 µM (inactive) | > 100 µM (inactive) | 12.9 µM (inactive) | > 100 µM (inactive) | > 100 µM (inactive) |
| c1ccc(/N=C2\C(=N/c3ccccc3)N(C3CCCCC3)/C(=N\C3CCCCC3)N2c2ccccc2)cc1 | > 100 µM (inactive) | > 100 µM (inactive) | > 100 µM (inactive) | > 100 µM (inactive) | > 100 µM (inactive) | > 10 µM (inactive) | – | – | 49.9 µM (inactive) | > 100 µM (inactive) | > 100 µM (inactive) | – | > 100 µM (inactive) | > 100 µM (inactive) | > 100 µM (inactive) | > 100 µM (inactive) | – | > 100 µM (inactive) | > 100 µM (inactive) | > 100 µM (inactive) |
| COC(=O)/C=C1\SC2(O\C1=N/c1ccccc1)C1CC3CC(C1)CC2C3 (stereo not given) | > 100 µM (inactive) | > 100 µM (inactive) | > 100 µM (inactive) | – | > 100 µM (inactive) | > 100 µM (inactive) | > 100 µM (inactive) | > 100 µM (inactive) | – | > 100 µM (inactive) | > 100 µM (inactive) | > 100 µM (inactive) | > 100 µM (inactive) | – | > 100 µM (inactive) | > 100 µM (inactive) | > 100 µM (inactive) | > 100 µM (inactive) | > 100 µM (inactive) | > 100 µM (inactive) |
